# From PubChem BioAssay AID2060491 (Molecular Pharmacology Branch, DTP, NCI, 2025)
# Test system: 857933-349-R-J2-PDC complex spheroids, viability
# Experiment: Anticancer human tumor 857933-349-R-J2-PDC patient-derived colon adenocarcinoma cell line growth inhibition [GQUAD]
# Settings: for IC50: curve of first compound; for viability, T/C: stronger effect = lower value
# Summary of the method: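 Viability of tumor cells grown as complex spheroids with endothelial and stromal cells, exposed to drug combinations. Top concentration at or near clinical Cmax (else 10 microM), diluted in half-log increments.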
# [1] = second compound 0.0316 µM, first compound 0.0316 µM
# [2] = second compound 0.0316 µM, first compound 0.1 µM
# [3] = second compound 0.0316 µM, first compound 0.316 µM
# [4] = second compound 0.0316 µM, first compound 1 µM
# [5] = second compound 0.0316 µM, first compound 3.16 µM
# [6] = second compound 0.0316 µM, first compound 10 µM
# [7] = second compound 0.1 µM, first compound 0.0316 µM
# [8] = second compound 0.1 µM, first compound 0.1 µM
# [9] = second compound 0.1 µM, first compound 0.316 µM
# [10] = second compound 0.1 µM, first compound 1 µM
# [11] = second compound 0.1 µM, first compound 3.16 µM
# [12] = second compound 0.1 µM, first compound 10 µM
# [13] = second compound 0.316 µM, first compound 0.0316 µM
# [14] = second compound 0.316 µM, first compound 0.1 µM
# [15] = second compound 0.316 µM, first compound 0.316 µM
# [16] = second compound 0.316 µM, first compound 1 µM
# [17] = second compound 0.316 µM, first compound 3.16 µM
# [18] = second compound 0.316 µM, first compound 10 µM
# [19] = second compound 1 µM, first compound 0.0316 µM
# [20] = second compound 1 µM, first compound 0.1 µM
# [21] = second compound 1 µM, first compound 0.316 µM
# [22] = second compound 1 µM, first compound 1 µM
# [23] = second compound 1 µM, first compound 3.16 µM
# [24] = second compound 1 µM, first compound 10 µM
# [25] = second compound 3.16 µM, first compound 0.0316 µM
# [26] = second compound 3.16 µM, first compound 0.1 µM
# [27] = second compound 3.16 µM, first compound 0.316 µM
# [28] = second compound 3.16 µM, first compound 1 µM
# [29] = second compound 3.16 µM, first compound 3.16 µM
# [30] = second compound 3.16 µM, first compound 10 µM
# [31] = second compound 10 µM, first compound 0.0316 µM
# [32] = second compound 10 µM, first compound 0.1 µM
# [33] = second compound 10 µM, first compound 0.316 µM
# [34] = second compound 10 µM, first compound 1 µM
# [35] = second compound 10 µM, first compound 3.16 µM
# [36] = second compound 10 µM, first compound 10 µM
# 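Further: spheroids exposed to compounds for one week before readout.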
# 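Wherever viability, T/C is given: percent viability relative to vehicle DMSO wells taken as 100%.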
smiles,measurement,setting,value
C#Cc1c(F)ccc2cc(O)cc(-c3ncc4c(N5CC6CCC(C5)N6)nc(OCC56CCCN5CC(F)C6)nc4c3F)c12 (stereo unspecified) + Cc1[nH]c2ccc(F)cc2c1-c1nc2c3cccnc3c3ncccc3c2[nH]1,IC50,second compound 0.0316 µM,> 10000 nM
same,IC50,second compound 0.1 µM,> 10000 nM
same,IC50,second compound 0.316 µM,> 10000 nM
same,IC50,second compound 1 µM,> 10000 nM
same,IC50,second compound 3.16 µM,> 10000 nM
same,IC50,second compound 10 µM,> 10000 nM
same,"viability, T/C",[1],109%
same,"viability, T/C",[2],96.3%
same,"viability, T/C",[3],91.9%
same,"viability, T/C",[4],80.7%
same,"viability, T/C",[5],74.3%
same,"viability, T/C",[6],63.9%
same,"viability, T/C",[7],104%
same,"viability, T/C",[8],98.5%
same,"viability, T/C",[9],89.2%
same,"viability, T/C",[10],85.2%
same,"viability, T/C",[11],71.3%
same,"viability, T/C",[12],66.7%
same,"viability, T/C",[13],101%
same,"viability, T/C",[14],90.8%
same,"viability, T/C",[15],86.3%
same,"viability, T/C",[16],78.4%
same,"viability, T/C",[17],81.7%
same,"viability, T/C",[18],70.1%
same,"viability, T/C",[19],98.2%
same,"viability, T/C",[20],87.5%
same,"viability, T/C",[21],93.3%
same,"viability, T/C",[22],78.8%
same,"viability, T/C",[23],86.7%
same,"viability, T/C",[24],75.7%
same,"viability, T/C",[25],94.3%
same,"viability, T/C",[26],83.2%
same,"viability, T/C",[27],81.6%
same,"viability, T/C",[28],73.3%
same,"viability, T/C",[29],80.8%
same,"viability, T/C",[30],74.3%
same,"viability, T/C",[31],90.4%
same,"viability, T/C",[32],93.7%
same,"viability, T/C",[33],87%
same,"viability, T/C",[34],79.9%
same,"viability, T/C",[35],78.8%
same,"viability, T/C",[36],66.8%
C=CCn1c(=O)c2cnc(Nc3ccc(N4CCN(C)CC4)cc3)nc2n1-c1cccc(C(C)(C)O)n1 + Cc1[nH]c2ccc(F)cc2c1-c1nc2c3cccnc3c3ncccc3c2[nH]1,IC50,second compound 0.0316 µM,1930 nM
same,IC50,second compound 0.1 µM,1920 nM
same,IC50,second compound 0.316 µM,1470 nM
same,IC50,second compound 1 µM,1570 nM
same,IC50,second compound 3.16 µM,960 nM
same,IC50,second compound 10 µM,1390 nM
same,"viability, T/C",[1],107%
same,"viability, T/C",[2],99.1%
same,"viability, T/C",[3],94.5%
same,"viability, T/C",[4],77%
same,"viability, T/C",[5],28.8%
same,"viability, T/C",[6],27.8%
same,"viability, T/C",[7],105%
same,"viability, T/C",[8],104%
same,"viability, T/C",[9],97.2%
same,"viability, T/C",[10],81.5%
same,"viability, T/C",[11],25.4%
same,"viability, T/C",[12],24%
same,"viability, T/C",[13],107%
same,"viability, T/C",[14],98.1%
same,"viability, T/C",[15],94%
same,"viability, T/C",[16],62.7%
same,"viability, T/C",[17],24.2%
same,"viability, T/C",[18],26%
same,"viability, T/C",[19],98.5%
same,"viability, T/C",[20],86.1%
same,"viability, T/C",[21],86%
same,"viability, T/C",[22],63.4%
same,"viability, T/C",[23],29.6%
same,"viability, T/C",[24],23.9%
same,"viability, T/C",[25],94.8%
same,"viability, T/C",[26],76%
same,"viability, T/C",[27],78.1%
same,"viability, T/C",[28],48.7%
same,"viability, T/C",[29],27.8%
same,"viability, T/C",[30],24.5%
same,"viability, T/C",[31],86.1%
same,"viability, T/C",[32],77.8%
same,"viability, T/C",[33],75.3%
same,"viability, T/C",[34],58.7%
same,"viability, T/C",[35],30%
same,"viability, T/C",[36],24.9%
CC(C)(O)C1CCC(Nc2ccc3ncc(-c4cccc(C(F)(F)F)c4)n3n2)CC1 (stereo unspecified) + Cc1[nH]c2ccc(F)cc2c1-c1nc2c3cccnc3c3ncccc3c2[nH]1,IC50,second compound 0.0316 µM,761 nM
same,IC50,second compound 0.1 µM,725 nM
same,IC50,second compound 0.316 µM,673 nM
same,IC50,second compound 1 µM,682 nM
same,IC50,second compound 3.16 µM,657 nM
same,IC50,second compound 10 µM,707 nM
same,"viability, T/C",[1],107%
same,"viability, T/C",[2],95.8%
same,"viability, T/C",[3],96.4%
same,"viability, T/C",[4],35.7%
same,"viability, T/C",[5],2.35%
same,"viability, T/C",[6],2.26%
same,"viability, T/C",[7],104%
same,"viability, T/C",[8],97.8%
same,"viability, T/C",[9],93%
same,"viability, T/C",[10],33.5%
same,"viability, T/C",[11],2.03%
same,"viability, T/C",[12],1.93%
same,"viability, T/C",[13],104%
same,"viability, T/C",[14],92%
same,"viability, T/C",[15],87.3%
same,"viability, T/C",[16],30.8%
same,"viability, T/C",[17],2.68%
same,"viability, T/C",[18],2.19%
same,"viability, T/C",[19],93.4%
same,"viability, T/C",[20],87.3%
same,"viability, T/C",[21],87.5%
same,"viability, T/C",[22],31.4%
same,"viability, T/C",[23],2.43%
same,"viability, T/C",[24],1.82%
same,"viability, T/C",[25],87.3%
same,"viability, T/C",[26],85.1%
same,"viability, T/C",[27],79.5%
same,"viability, T/C",[28],33.1%
same,"viability, T/C",[29],3.45%
same,"viability, T/C",[30],2.02%
same,"viability, T/C",[31],86.6%
same,"viability, T/C",[32],84.6%
same,"viability, T/C",[33],81.7%
same,"viability, T/C",[34],36.4%
same,"viability, T/C",[35],3.99%
same,"viability, T/C",[36],2.51%
